Source: US20110118462A1, “N-HETEROCYCLIC SUBSTITUENT-CONTAINING ANTIBIOTIC, PREPARATION AND USE THEREOF” (priority 2009, published 2011)

What was measured:
[1] = Acute toxicity tests on rats; format: in vivo; conditions: intravenous injection
Haemophilus Influenzae = assay: Vitro bacteriostasis experiment, two-fold agar dilution method; format: cell-based
Procedure: (§1) Vitro bacteriostasis experiments of Compounds Ia, Ib, and Ic were performed using the two-fold agar dilution method.

Type A Chain Coccus = assay: as above; format: cell-based
Procedure: as §1

Type B Chain Coccus = assay: as above; format: cell-based
Procedure: as §1

Pneumonia Chain Coccus [2] = assay: as above; format: cell-based
Procedure: as §1

Excrement Enterococcus [3] = assay: as above; format: cell-based
Procedure: as §1

Shigella = assay: as above; format: cell-based
Procedure: as §1

Moraxella Catarrhalis [4] = assay: as above; format: cell-based
Procedure: as §1

[5] = Muscle stimulation test on rabbits; parameters: species or system New Zealand rabbits; conditions: rabbit, in vivo
Text: The inventors have conducted the muscle stimulation test of Compounds Ia and II on rabbits. The test is as follows. Eight New Zealand rabbits were divided into three groups. Two groups, containing three rabbits per group, were administrated with Compound Ia and Compound II, respectively. The third group, containing two rabbits, was used as a negative control group. The rabbits were intramuscularly injected with high concentrations of the compounds into the left quadriceps and with low concentration into the right quadriceps. The negative control group was injected with an equal concentration of sodium chloride into the quadriceps of both sides. Each quadriceps was administrated with 1.0 mL once a day for three consecutive days. One or two rabbits from each group were anatomized after 48 hours of the injection. The remaining rabbits were anatomized after the end of the two-week recovery period.

[6] = pH value of aqueous solution; format: physicochemical; conditions: for pH: concentration 0.1 g/mL
Procedure: The pH value of its saturated aqueous solution is 3.2.
At 5° C., sodium carbonate (0.1 g) was dissolved in deionized water (5 mL) in a three-neck flask. Compound II (1 g) was added to the flask with agitation (350 rpm) and the reaction was carried out for 45 minutes. The reaction mixture was discolored with activated carbon and then filtered. The filtration liquid was dropwise added to 80 mL of acetone to precipitate. The precipitation was monitored by an on-line particle analyzing instrument. The mixture was filtered and the solid was washed twice with acetone. Drying under vacuum at 40° C. for 24 hours gave 0.75 g of Compound Ia with a purity of 98.35% (HPLC) and pH 7.3 (concentration 0.1 g/mL).

Moraxella Catarrhalis [7] = assay: In-vivo antibacterial activity (protection of rats)
[8] = Stability in the solid state, storage at various temperatures; format: physicochemical
Text: (§2) Compared to Compound II, Compound I has better stability in aqueous solution (see Table 2) and in the solid state (See Table 3). Thus Compound I can be stored without freezing or special treatment.

Excrement Enterococcus [9] = assay: In-vivo antibacterial activity (protection of rats)
Pneumonia Chain Coccus [10] = assay: as above
Solubility = format: physicochemical
Text: Its chemical name is 7-(α-((N,N-diisopropylamidino)thio)acetylamino)-3-(((1,2,5,6-tetrahydro-2-methyl-5,6-dioxo-1,2,4-triazin-3-yl)thio)methyl) cephalosporanic acid mono sodium salt (Compound Ia).

[11] = format: in vivo; conditions: for t1/2β: single intravenous administration (Ia 50 mg/kg·bw)
Procedure: The inventors conducted preliminary pharmacokinetic study of Compound Ia on Beagle dogs. The Beagle dogs were allowed to drink water freely but not to eat food for 16 hours before and 4 hours after the intravenous injection of 50 mg/kg·bw of the compound. Intravenous blood sampling took place at 0, 0.083, 0.17, 0.25, 0.5, 1, 1.5, 2, 3, 4, 6, 9, 12 hours, respectively, after the injection, each blood sample being 3 mL. Thereafter the dogs were given the drugs every other week and blood samples were taken according to the above manner. The blood samples were added to the centrifuge tubes containing heparin and thoroughly mixed by centrifuging at 4000 rpm for 10 minutes. The blood plasma was separated and an abstraction agent (methanol/ethyl acetate 3:2 V/V) was added to and mixed with it by centrifuging at 10000 rpm for 10 minutes. The top, clear liquid, 20 μL, was taken and analyzed by HPLC.

[12] = Stability in aqueous injection solutions at 37° C.; format: physicochemical
Text: as §2

[13] = healthy Beagle dogs, single intravenous administration 50 mg/kg·bw

**Q.** For CC(C)N(C(=N)SCC(=O)NC1C(=O)N2C(C(=O)[O-])=C(CSc3nc(=O)c(=O)[nH]n3C)CSC12)C(C)C.[Na+] (stereo not drawn) [Compound Ia, 7-(α-((N,N-diisopropylamidino)thio)acetylamino)-3-(((1,2,5,6-tetrahydro-2-methyl-5,6-dioxo-1,2,4-triazin-3-yl)thio)methyl) cephalosporanic acid mono sodium salt], which LD50 [1] is on record?
**A.** 1.7476 g/kg

**Q.** And the MIC90 (Haemophilus Influenzae)?
**A.** 0.5 mg/L

**Q.** And the MIC90 (Type A Chain Coccus)?
**A.** 0.5 mg/L

**Q.** And the MIC90 (Type B Chain Coccus)?
**A.** 0.0625 mg/L

**Q.** And the MIC90 (Pneumonia Chain Coccus [2])?
**A.** 0.125 mg/L

**Q.** And the MIC90 (Excrement Enterococcus [3])?
**A.** 8 mg/L

**Q.** And the MIC90 (Shigella)?
**A.** 4 mg/L

**Q.** And the MIC90 (Moraxella Catarrhalis [4])?
**A.** 1 mg/L

**Q.** What about the muscle irritation observed [5] of the same molecule?
**A.** slight irritation

**Q.** And the pH [6]?
**A.** 7.3

**Q.** And the pH value ([6]; concentration not given)?
**A.** 7.3

**Q.** And the “protection for rats against Moraxella Catarrhalis” value (Moraxella Catarrhalis [7])?
**A.** excellent protection

**Q.** What about the “content after 72 hours in storage” value ([8]; 10° C.) of the same molecule?
**A.** 96.9%

**Q.** And the “content after 72 hours in storage” value ([8]; 40° C.)?
**A.** 96.6%

**Q.** And the “content after 72 hours in storage” value ([8]; 60° C.)?
**A.** 96.4%

**Q.** What about the “content after 72 hours in storage” value ([8]; −5° C.) of the same molecule?
**A.** 97.0%

**Q.** And the “protection for rats against Excrement Enterococcus” value (Excrement Enterococcus [9])?
**A.** excellent protection

**Q.** What about the “protection for rats against Pneumonia Chain Coccus” value (Pneumonia Chain Coccus [10]) of the same molecule?
**A.** excellent protection

**Q.** And the solubility in acetone (Solubility)?
**A.** not readily soluble

**Q.** And the “solubility in anhydrous ethanol” value (Solubility)?
**A.** not readily soluble

**Q.** And the solubility in methanol (Solubility)?
**A.** readily soluble

**Q.** And the solubility in water (Solubility)?
**A.** readily soluble

**Q.** And the AUC [11, 13]?
**A.** 108.29 ± 18.17 mg·h/L

**Q.** And the CIB [11, 13]?
**A.** 047 ± 0.09 L/kg/h

**Q.** What about the V1 [11, 13] of the same molecule?
**A.** 0.25 ± 0.07 L/kg

**Q.** And the VB [11, 13]?
**A.** 1.61 ± 0.30 L/kg

**Q.** What about the t1/2α [11, 13] of the same molecule?
**A.** 37.8 ± 7.2 min

**Q.** What about the Cmax ([11]; healthy Beagle dogs, single intravenous administration 50 mg/kg·bw, plasma) of the same molecule?
**A.** 116.35 ± 12.06 µg/mL

**Q.** What about the “drug concentration after 12 hours of the administration” value ([11]; healthy Beagle dogs, single intravenous administration 50 mg/kg·bw, plasma, 12 hours) of the same molecule?
**A.** 0.39 ± 0.09 µg/mL

**Q.** And the t1/2β ([11]; healthy Beagle dogs)?
**A.** 2.59 ± 0.04 h

**Q.** What about the “content in aqueous injection solution” value ([12]; 0 hr) of the same molecule?
**A.** 98.60%

**Q.** And the “content in aqueous injection solution” value ([12]; 0.2 hr)?
**A.** 98.60%

**Q.** And the “content in aqueous injection solution” value ([12]; 1 hr)?
**A.** 97.98%

**Q.** What about the “content in aqueous injection solution” value ([12]; 2 hr) of the same molecule?
**A.** 97.79%

**Q.** And the “content in aqueous injection solution” value ([12]; 3 hr)?
**A.** 97.24%

**Q.** What about the “content in aqueous injection solution” value ([12]; 4 hr) of the same molecule?
**A.** 97.13%

**Q.** Which MIC90 (Haemophilus Influenzae) does the source give for CC(C)N=C(NC(C)C)SCC(=O)NC1C(=O)N2C(C(=O)[O-])=C(CSc3nc(=O)c(=O)[nH]n3C)CSC12.CC(C)N=C(NC(C)C)SCC(=O)NC1C(=O)N2C(C(=O)[O-])=C(CSc3nc(=O)c(=O)[nH]n3C)CSC12.[Na+].[Na+] (stereo not drawn) [Compound Ib, disodium 7-(α-((N,N′-diisopropylamidino)thio)acetylamino)-3-(((1,2,5,6-tetrahydro-2-methyl-5,6-dioxo-1,2,4-triazin-3-yl)thio)methyl) cephalosporanate] here?
**A.** 0.5 mg/L

**Q.** What about the MIC90 (Type A Chain Coccus) of the same molecule?
**A.** 0.1 mg/L

**Q.** What about the MIC90 (Type B Chain Coccus) of the same molecule?
**A.** 0.0125 mg/L

**Q.** And the MIC90 (Pneumonia Chain Coccus [2])?
**A.** 0.5 mg/L

**Q.** And the MIC90 (Excrement Enterococcus [3])?
**A.** 4 mg/L

**Q.** What about the MIC90 (Shigella) of the same molecule?
**A.** 4 mg/L

**Q.** And the MIC90 (Moraxella Catarrhalis [4])?
**A.** 0.5 mg/L

**Q.** And the pH [6]?
**A.** 10.02

**Q.** What about the “content in aqueous injection solution” value ([12]; 0 hr) of the same molecule?
**A.** 98.80%

**Q.** What about the “content in aqueous injection solution” value ([12]; 0.2 hr) of the same molecule?
**A.** 98.54%

**Q.** What about the “content in aqueous injection solution” value ([12]; 1 hr) of the same molecule?
**A.** 97.14%

**Q.** What about the “content in aqueous injection solution” value ([12]; 2 hr) of the same molecule?
**A.** 96.66%

**Q.** And the “content in aqueous injection solution” value ([12]; 3 hr)?
**A.** 95.21%

**Q.** And the “content in aqueous injection solution” value ([12]; 4 hr)?
**A.** 94.30%

**Q.** For CC(C)N(C(=N)SCC(=O)NC1C(=O)N2C(C(=O)[O-])=C(CSc3nc(=O)c(=O)[nH]n3C)CSC12)C(C)C.[K+] (stereo not drawn) [Compound Ic, 7-(α-((N,N-diisopropylamidino)thio)acetylamino)-3-(((1,2,5,6-tetrahydro-2-methyl-5,6-dioxo-1,2,4-triazin-3-yl)thio)methyl) cephalosporanic acid monopotassium salt], which MIC90 (Haemophilus Influenzae) is on record?
**A.** 0.5 mg/L

**Q.** What about the MIC90 (Type A Chain Coccus) of the same molecule?
**A.** 0.1 mg/L

**Q.** What about the MIC90 (Type B Chain Coccus) of the same molecule?
**A.** 0.0156 mg/L

**Q.** What about the MIC90 (Pneumonia Chain Coccus [2]) of the same molecule?
**A.** 0.5 mg/L

**Q.** And the MIC90 (Excrement Enterococcus [3])?
**A.** 8 mg/L

**Q.** And the MIC90 (Shigella)?
**A.** 4 mg/L

**Q.** And the MIC90 (Moraxella Catarrhalis [4])?
**A.** 0.5 mg/L

**Q.** For CC(=O)OCC1=C(C(=O)O)N2C(=O)[C@@H](NC(=O)CSC(=NC(C)C)NC(C)C)[C@H]2SC1 [cefathiamidine, reference compound], which LD50 [1] is on record?
**A.** 0.8242 g/kg

**Q.** What about the “biological half-life in blood” value ([11]; Beagle dogs, preliminary pharmacokinetic study) of the same molecule?
**A.** 0.65 hours

**Q.** What about the t1/2β ([11]; healthy Beagle dogs) of the same molecule?
**A.** 0.65 ± 0.03 h
